Structures are written as SMILES. Like-named read-outs stand apart in the source and are kept apart here.

Holding throughout (type): biochemical
One assay deals with ADAM17 (TACE) (Homo sapiens, UniProt P78536). The assay is described as follows: TACE fluorometric inhibition assay (Enzo kit BML-AK310). As for the experimental part:
(§1) The inhibitory activities of the compounds of the invention were assessed in 96-well microplate format using MMP1, MMP2, MMP9 and MMP13 colorimetric assay kits and TACE fluorometric assay kit from Enzo Life Sciences, Inc. The inhibitory effect of the compounds of the invention on ADAM10 activity were evaluated in 96-well microplate format using fluorometric assay from AnaSpec, Inc.
The TACE Fluorometric Drug Discovery Kit (catalog #BML-AK310) is a complete assay system designed to screen ADAM17 (TACE) inhibitors using a quenched fluorogenic peptide: Mca-PLAQAV-Dpa-RSSSR—NH2. Mca fluorescence is quenched by the Dpa group until cleavage by proteases separates the two moieties leading to an increase in Mca fluorescence.
The inhibitory activity of the compounds of the invention against TACE was tested according to the manufacturer's assay protocol and the fluorescence was monitored at excitation/emission wavelengths=320 nm/420 nm using Tecan Infinite® 200 Pro F Nano^+ microplate reader.
(§2) The normalized values were analyzed using GraphPadPrism 9 for Windows (GraphPad Software, San Diego, CA, USA) software by plotting inhibition curves and determining the IC50 values (in nM).

In another assay the target is T1, MMP2 (Homo sapiens, UniProt P08253).
T1 sequence (P08253 110-660): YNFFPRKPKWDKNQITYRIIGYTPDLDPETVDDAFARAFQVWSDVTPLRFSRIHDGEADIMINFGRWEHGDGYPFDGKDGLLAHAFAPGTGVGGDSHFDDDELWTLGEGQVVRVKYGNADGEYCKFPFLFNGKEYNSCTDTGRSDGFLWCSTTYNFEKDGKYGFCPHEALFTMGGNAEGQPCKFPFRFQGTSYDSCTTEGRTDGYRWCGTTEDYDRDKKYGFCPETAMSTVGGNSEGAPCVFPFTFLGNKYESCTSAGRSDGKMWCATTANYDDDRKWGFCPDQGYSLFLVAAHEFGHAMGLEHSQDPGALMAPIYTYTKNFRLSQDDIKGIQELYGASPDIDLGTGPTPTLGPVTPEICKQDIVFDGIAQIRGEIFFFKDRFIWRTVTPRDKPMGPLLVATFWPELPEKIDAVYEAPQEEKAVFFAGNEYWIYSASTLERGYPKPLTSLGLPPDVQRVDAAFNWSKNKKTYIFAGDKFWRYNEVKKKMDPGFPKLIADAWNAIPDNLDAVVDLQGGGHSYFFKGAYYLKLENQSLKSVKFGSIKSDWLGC
The assay is described as follows: MMP-2 colorimetric inhibition assay (Enzo kit BML-AK408). Here is the method:
as §1
The MMP-2 Colorimetric Drug Discovery Kit (catalog #BML-AK408) is a complete assay system designed to screen MMP-2 inhibitors using a thiopeptide as a chromogenic substrate (Ac-PLG-[2-mercapto-4-methylpentanoyl]-LG-OC2H5). The MMP cleavage site peptide bond is replaced by a thioester bond in the thiopeptide. Hydrolysis of this bond by an MMP produces a sulfhydryl group, which reacts with DTNB [5,5′-dithiobis(2-nitrobenzoic acid), Ellman's reagent] to form 2-nitro-5-thiobenzoic acid, that can be detected spectrophotometrically.
(§3) The inhibitory activities of the compounds of the invention against MMP1, MMP2, MMP9 and MMP13 were tested according to the manufacturer's assay protocols and the absorbance at 415 nm was monitored using the Tecan Infinite® 200 Pro F Nano^+ microplate reader.
as §2

Another assay concerns the target T2, MMP1 (Homo sapiens, UniProt P03956).
T2 sequence (P03956 100-269 limits assumed): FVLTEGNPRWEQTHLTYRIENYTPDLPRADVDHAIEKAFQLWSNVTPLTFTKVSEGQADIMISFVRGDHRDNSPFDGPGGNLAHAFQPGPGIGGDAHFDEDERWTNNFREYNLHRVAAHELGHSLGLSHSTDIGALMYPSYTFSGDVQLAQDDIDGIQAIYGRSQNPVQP
The assay is described as follows: MMP-1 colorimetric inhibition assay (Enzo kit BML-AK404). As for the experimental part: as §1
The MMP-1 Colorimetric Drug Discovery Kit (catalog #BML-AK404) is a complete assay system designed to screen inhibitors of matrix metalloproteinase-1 using a thiopeptide as a chromogenic substrate (Ac-PLG-[2-mercapto-4-methylpentanoyl]-LG-OC2H5). The MMP cleavage site peptide bond is replaced by a thioester bond in the thiopeptide. Hydrolysis of this bond by an MMP produces a sulfhydryl group, which reacts with DTNB [5,5′-dithiobis(2-nitrobenzoic acid), Ellman's reagent] to form 2-nitro-5-thiobenzoic acid, that can be detected spectrophotometrically.
as §3, §2

In another assay the target is T3, MMP13 (Homo sapiens, UniProt P45452).
T3 construct: purchased Enzo Life Sciences, Inc. BML-AK412
The assay is described as follows: MMP-13 colorimetric inhibition assay (Enzo kit BML-AK412). Here is the method:
as §1
The MMP-13 Colorimetric Drug Discovery Kit (catalog #BML-AK412) is a complete assay system designed to screen inhibitors of matrix metalloproteinase-13 using a thiopeptide as a chromogenic substrate (Ac-PLG-[2-mercapto-4-methylpentanoyl]-LG-OC2H5). The MMP cleavage site peptide bond is replaced by a thioester bond in the thiopeptide. Hydrolysis of this bond by an MMP produces a sulfhydryl group, which reacts with DTNB [5,5′-dithiobis(2-nitrobenzoic acid), Ellman's reagent] to form 2-nitro-5-thiobenzoic acid, that can be detected spectrophotometrically.
as §3, §2

A further assay addresses MMP9 (Homo sapiens, UniProt P14780). Put plainly: MMP-9 colorimetric inhibition assay (Enzo kit BML-AK410). Here is the method: as §1
The MMP-9 Colorimetric Drug Discovery Kit (catalog #BML-AK410) is a complete assay system designed to screen inhibitors of matrix metalloproteinase-9 using a thiopeptide as a chromogenic substrate (Ac-PLG-[2-mercapto-4-methylpentanoyl]-LG-OC2H5). The MMP cleavage site peptide bond is replaced by a thioester bond in the thiopeptide. Hydrolysis of this bond by an MMP produces a sulfhydryl group, which reacts with DTNB [5,5′-dithiobis(2-nitrobenzoic acid), Ellman's reagent] to form 2-nitro-5-thiobenzoic acid, that can be detected spectrophotometrically.
as §3, §2

The mark [1] stands for this setting: quenched fluorogenic peptide, ex/em 320/420 nm, read-out: TACE IC50 class.
The mark [2] stands for this setting: thiopeptide substrate, absorbance 415 nm, read-out: MMP 2 IC50 class.
Setting [3] is: thiopeptide substrate, absorbance 415 nm, read-out: MMP 1 IC50 class.
The mark [4] stands for this setting: thiopeptide substrate, absorbance 415 nm, read-out: MMP 13 IC50 class.
The mark [5] stands for this setting: thiopeptide substrate, absorbance 415 nm, read-out: MMP 9 IC50 class.

Sequence of ADAM17 (TACE) (P78536 215-477 limits assumed): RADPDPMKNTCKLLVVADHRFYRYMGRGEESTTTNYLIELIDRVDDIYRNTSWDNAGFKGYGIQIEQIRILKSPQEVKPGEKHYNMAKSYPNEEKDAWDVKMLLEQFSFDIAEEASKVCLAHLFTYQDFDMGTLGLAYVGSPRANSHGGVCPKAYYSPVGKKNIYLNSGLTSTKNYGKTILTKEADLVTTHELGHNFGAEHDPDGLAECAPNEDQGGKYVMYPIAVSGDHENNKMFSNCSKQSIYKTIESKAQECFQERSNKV
Sequence of MMP9 (P14780 94-707): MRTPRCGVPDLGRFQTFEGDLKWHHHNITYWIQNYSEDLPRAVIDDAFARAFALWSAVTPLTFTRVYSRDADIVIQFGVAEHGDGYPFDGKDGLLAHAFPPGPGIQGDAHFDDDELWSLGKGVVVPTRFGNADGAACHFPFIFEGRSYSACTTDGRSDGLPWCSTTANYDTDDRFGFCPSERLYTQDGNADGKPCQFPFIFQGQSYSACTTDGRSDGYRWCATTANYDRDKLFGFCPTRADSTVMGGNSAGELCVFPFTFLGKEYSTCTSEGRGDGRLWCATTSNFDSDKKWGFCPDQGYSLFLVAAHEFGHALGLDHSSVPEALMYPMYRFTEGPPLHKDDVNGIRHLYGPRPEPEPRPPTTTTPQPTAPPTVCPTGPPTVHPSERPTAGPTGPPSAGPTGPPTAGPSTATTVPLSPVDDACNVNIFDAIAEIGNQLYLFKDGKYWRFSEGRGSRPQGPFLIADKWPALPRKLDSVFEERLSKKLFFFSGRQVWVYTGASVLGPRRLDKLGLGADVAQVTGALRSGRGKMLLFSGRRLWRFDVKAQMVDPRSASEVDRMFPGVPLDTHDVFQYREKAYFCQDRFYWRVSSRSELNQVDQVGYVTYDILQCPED

Usually IC50 stands for the concentration at which inhibition is half-maximal. With `COCCOC(=O)N1[C@@H]2CC[C@H]1[C@H](C(=O)NO)N(S(=O)(=O)c1ccc(Oc3ccc(F)cc3)cn1)C2` [Example 14, 2-methoxyethyl (1S,2R,5R)-3-((5-(4-fluorophenoxy)pyridin-2-yl)sulfonyl)-2-(hydroxycarbamoyl)-3,8-diazabicyclo[3.2.1]octane-8-carboxylate], the IC50 was 1000 to 10000 nM at ADAM17 (TACE) (setting [1]); under 50 nM on MMP2 (setting [2]); 1000 to 10000 nM at MMP1 (setting [3]); under 50 nM on MMP13 (setting [4]); under 50 nM at MMP9 (setting [5]).

Take `COCCOC(=O)N1[C@@H]2CC[C@H]1[C@H](C(=O)NO)N(S(=O)(=O)c1ccc(Oc3cnn(-c4ccc(F)cc4)c3)nc1)C2` [Example 40, 2-methoxyethyl (1S,2R,5R)-3-((6-((1-(4-fluorophenyl)-1H-pyrazol-4-yl)oxy)pyridin-3-yl)sulfonyl)-2-(hydroxycarbamoyl)-3,8-diazabicyclo-[3.2.1]octane-8-carboxylate]: the IC50 is 50 to 1000 nM on ADAM17 (TACE) (setting [1]); under 50 nM at MMP2 (setting [2]); 50 to 1000 nM at MMP1 (setting [3]); under 50 nM on MMP13 (setting [4]); under 50 nM on MMP9 (setting [5]).

`COCCOC(=O)N1[C@@H]2CC[C@H]1[C@H](C(=O)NO)N(S(=O)(=O)c1cnc(Oc3ccc(F)cc3)cn1)C2` [Example 17, 2-methoxyethyl (1S,2R,5R)-3-((5-(4-fluorophenoxy)-pyrazin-2-yl)sulfonyl)-2-(hydroxycarbamoyl)-3,8-diazabicyclo-[3.2.1]octane-8-carboxylate]: the 50% inhibitory concentration (IC50) on ADAM17 (TACE) (setting [1]) is over 10000 nM; on MMP2 (setting [2]), 1000 to 10000 nM; on MMP1 (setting [3]), over 10000 nM; at MMP13 (setting [4]) it was 1000 to 10000 nM; on MMP9 (setting [5]), 1000 to 10000 nM.

For the compound `COCCOC(=O)N1[C@@H]2CC[C@H]1[C@H](C(=O)NO)N(S(=O)(=O)c1cc(F)c(Oc3cnn(C)c3)c(F)c1)C2` [Example 42, 2-methoxyethyl (1S,2R,5R)-3-((3,5-difluoro-4-((1-methyl-1H-pyrazol-4-yl)oxy)phenyl)sulfonyl)-2-(hydroxycarbamoyl)-3,8-diazabicyclo[3.2.1]octane-8-carboxylate], the IC50 was in the range of 50 to 1000 nM at ADAM17 (TACE) (setting [1]); 50 to 1000 nM at MMP2 (setting [2]); 1000 to 10000 nM on MMP1 (setting [3]); 50 to 1000 nM on MMP13 (setting [4]); 50 to 1000 nM on MMP9 (setting [5]).

On to `COCCOC(=O)N1[C@@H]2CC[C@H]1[C@H](C(=O)NO)N(S(=O)(=O)N1CCN(Cc3ccc(Cl)cc3)CC1)C2` [Example 76, 2-methoxyethyl (1S,2R,5R)-3-((4-(4-chlorobenzyl)piperazin-1-yl)sulfonyl)-2-(hydroxycarbamoyl)-3,8-diazabicyclo[3.2.1]octane-8-carboxylate], for which the IC50 on ADAM17 (TACE) (setting [1]) was 1000 to 10000 nM; at MMP2 (setting [2]), 50 to 1000 nM; at MMP1 (setting [3]), over 10000 nM; on MMP13 (setting [4]), 50 to 1000 nM; on MMP9 (setting [5]), 50 to 1000 nM.

In the case of `COCCOC(=O)N1[C@@H]2CC[C@H]1[C@H](C(=O)NO)N(S(=O)(=O)N1CCN(Cc3ccc(OC)cc3)CC1)C2` [Example 77, 2-methoxyethyl (1S,2R,5R)-2-(hydroxycarbamoyl)-3-((4-(4-methoxybenzyl)piperazin-1-yl)sulfonyl)-3,8-diazabicyclo[3.2.1]octane-8-carboxylate], the IC50 on ADAM17 (TACE) (setting [1]) was 1000 to 10000 nM; on MMP2 (setting [2]), 50 to 1000 nM; on MMP1 (setting [3]), over 10000 nM; on MMP13 (setting [4]), 1000 to 10000 nM; at MMP9 (setting [5]), 50 to 1000 nM.

On to `COCCOC(=O)N1[C@@H]2CC[C@H]1[C@H](C(=O)NO)N(S(=O)(=O)N1CCC(Oc3ccc(F)cc3)C1)C2` (stereo partly drawn) [Example 47, 2-methoxyethyl (1S,2R,5R)-3-((3-(4-fluoro-phenoxy)-pyrrolidin-1-yl)-sulfonyl)-2-(hydroxy-carbamoyl)-3,8-diazabicyclo-[3.2.1]octane-8-carboxylate], for which the IC50 at ADAM17 (TACE) was 50 to 1000 nM; on MMP2 it was 1000 to 10000 nM; against MMP1, over 10000 nM; on MMP13, 1000 to 10000 nM; against MMP9 it was 1000 to 10000 nM.

Take `COCCOC(=O)N1[C@@H]2CC[C@H]1[C@H](C(=O)NO)N(S(=O)(=O)c1ccc(Oc3ccc(OCF)cc3)nc1)C2` [Example 43, 2-methoxyethyl (1S,2R,5R)-3-((6-(4-(fluoromethoxy)phenoxy)pyridin-3-yl)sulfonyl)-2-(hydroxycarbamoyl)-3,8-diazabicyclo[3.2.1]octane-8-carboxylate]: the IC50 on ADAM17 (TACE) (setting [1]) is 1000 to 10000 nM; at MMP2 (setting [2]), under 50 nM; on MMP1 (setting [3]), 1000 to 10000 nM; on MMP13 (setting [4]), under 50 nM; on MMP9 (setting [5]), under 50 nM.

As for `COCCOC(=O)N1[C@@H]2CC[C@H]1[C@H](C(=O)NO)N(S(=O)(=O)c1ccc(Oc3cnn(CC(C)C)c3)nc1)C2` [Example 38, 2-methoxyethyl (1S,2R,5R)-2-(hydroxycarbamoyl)-3-((6-((1-isobutyl-1H-pyrazol-4-yl)oxy)pyridin-3-yl)sulfonyl)-3,8-diazabicyclo-[3.2.1]octane-8-carboxylate], the IC50 on ADAM17 (TACE) (setting [1]) was 50 to 1000 nM; on MMP2 (setting [2]) it was 50 to 1000 nM; at MMP1 (setting [3]), 1000 to 10000 nM; on MMP13 (setting [4]) it was 50 to 1000 nM; at MMP9 (setting [5]) it was 50 to 1000 nM.

As for `O=C(NO)[C@H]1[C@@H]2CC[C@H](CN1S(=O)(=O)c1ccc(Oc3ccc(F)cc3)nc1)N2C(=O)N1CCOCC1` [Example 68, (1S,2R,5R)-3-((6-(4-fluorophenoxy)pyridin-3-yl)sulfonyl)-N-hydroxy-8-(morpholine-4-carbonyl)-3,8-diazabicyclo[3.2.1]octane-2-carboxamide], the IC50 at ADAM17 (TACE) (setting [1]) was 1000 to 10000 nM; on MMP2 (setting [2]), under 50 nM; on MMP1 (setting [3]), 1000 to 10000 nM; at MMP13 (setting [4]), under 50 nM; at MMP9 (setting [5]), 50 to 1000 nM.

Regarding `CN1CCN(C(=O)N2[C@@H]3CC[C@H]2[C@H](C(=O)NO)N(S(=O)(=O)c2ccc(Oc4ccc(F)cc4)nc2)C3)CC1` [Example 69, (1S,2R,5R)-3-((6-(4-fluorophenoxy)pyridin-3-yl)sulfonyl)-N-hydroxy-8-(4-methyl-piperazine-1-carbonyl)-3,8-diazabicyclo-[3.2.1]octane-2-carboxamide], the IC50 at ADAM17 (TACE) (setting [1]) is 1000 to 10000 nM; at MMP2 (setting [2]), under 50 nM; at MMP1 (setting [3]), 1000 to 10000 nM; on MMP13 (setting [4]), 50 to 1000 nM; at MMP9 (setting [5]) it was 50 to 1000 nM.
